Where “and” joins values, the source holds several entries; their conditions need not be identical. Equal entries are not always repeated.
System: β1 integrin
Experiment: Adhesion of activated, β1 integrin-expressing U937 cells to human fibronectin
Format: cell-based
Settings: for Percent Cells Bound: single well
Description: U937 cells, a human monocyte-like, histiocytic lymphoma cell line, was acquired from American Type Culture Collection (ATCC No. CRL-1593). The cells were grown in the culture media described in Example I, materials. Cells were subcultured when the cell density was approximately 1×10^6 cells per ml. The β1 integrins on U937 cells were activated to bind to fibronectin by the addition of PMN Buffer, described in Example I. The human fibronectin (Gibco, No. XOO1) was diluted to 3.5 μg/ml with dPBS. A 1% Bovine Serum Albumin (BSA; Fraction V, ICN Corp., No. 810032) solution was prepared in dPBS and was sterile filtered using a […] disposable filter apparatus (Corning No. 25932-200) before use. The 1% BSA solution was used for blocking non-specific binding sites on the plastic wells of the assay plate. The assay plates used were Corning 96-well EIA/RIA plates (No. 25801).
350 ng of human fibronectin contained in 100 μl of dPBS was added to wells of the assay plate. The control wells were filled with dPBS only. The assay plate was incubated at room temperature for exactly two hours to allow the fibronectin to bind to the assay wells. The fibronectin solution was aspirated from the wells of the assay plate and the wells were washed 3× with 200 μl/well of dPBS. The assay wells were filled with the 1% BSA solution. Additional wells, not coated with fibronectin, were also filled with the 1% BSA solution; these wells were used to measure non-specific cell adherence to the plastic assay plate. The assay plate was incubated for 30 minutes at room temperature. The 1% BSA solution was removed from the wells of the assay plate by aspiration using a multichannel pipettor. The assay wells were washed 3× with 200 μl/well of dPBS. Approximately 50 μl of dPBS was added to the assay wells to ensure that they would not dry out prior to the initiation of the assay.
U937 cells were harvested from culture, washed and labeled with calcein AM fluorescent dye as outlined in Example I, except that the concentration of calcein used to label U937 cells was 12.5 μM and cells were sedimented by centrifugation at 1000 rpm for 5 minutes. After the final wash (see Example I), the U937 cells were resuspended in ice-cold PMN Buffer to 1.25×10^5 cells/40 μl. The cell suspension was placed in the dark at room temperature until needed. The asperlin solutions were prepared as described in Example I.
The 50 μl of dPBS remaining in the wells of the assay plate was removed by inverting the assay plate and tapping on paper toweling. 50 μl of the serially diluted asperlin solution was added to wells of the assay plate. Control wells received PMN buffer containing 2% DMSO and the assay plate was incubated for 10 minutes at room temperature.
Calcein labeled cells, that had been gently mixed by swirling, were added to the wells in 40 μl volumes equal to 1.25×10^5 cells/well and 10 μl of PMA solution was immediately added to the wells of the assay plate and the assay was continued as described in Example 1. 100 μl of PMN buffer was added to all wells of the assay plate. The fluorescence of the adherent, activated β1 integrin expressing cells was measured using a fluorescent plate reader, as described in Example I.
The percentage of β1 integrin expressing cells adhering to fibronectin coated wells was quantitated by the equation: % Cells Bound=((Bound Cell Fluorescence-Average Bound Fluorescence of the Non-specific Binding Control).div.Total Cell Fluorescence)×100.

## CC(=O)OC1C=CC(=O)OC1C1OC1C [Asperlin, 6,7-Anhydro-2,3,8-trideoxy-D-galacto-oct-2-enoic acidδ-lactone 4-acetate]
Asperlin 1.56 μg/ml
  % Inhibition Cell Adhesion: -9%
  Average Percent Bound: 75%
  Bound Cell Fluorescence: 3002 fluorescence units/well and 3140 fluorescence units/well and 3132 fluorescence units/well
  Percent Cells Bound: 75% and 76% and 74%
Asperlin 3.125 μg/ml
  % Inhibition Cell Adhesion: -9%
  Average Percent Bound: 75%
  Bound Cell Fluorescence: 3132 fluorescence units/well and 3140 fluorescence units/well and 2895 fluorescence units/well
  Percent Cells Bound: 76% and 75% and 73%
Asperlin 6.25 μg/ml
  % Inhibition Cell Adhesion: 10%
  Average Percent Bound: 62%
  Bound Cell Fluorescence: 2292 fluorescence units/well and 2344 fluorescence units/well and 2529 fluorescence units/well
  Percent Cells Bound: 60% and 65%
Asperlin 12.5 μg/ml
  % Inhibition Cell Adhesion: -1%
  Average Percent Bound: 70%
  Bound Cell Fluorescence: 2331 fluorescence units/well and 2683 fluorescence units/well and 2985 fluorescence units/well
  Percent Cells Bound: 64% and 71% and 74%
Asperlin 25 μg/ml
  % Inhibition Cell Adhesion: 0%
  Average Percent Bound: 69%
  Bound Cell Fluorescence: 2404 fluorescence units/well and 2870 fluorescence units/well and 2969 fluorescence units/well
  Percent Cells Bound: 61% and 71% and 75%
Asperlin 50 μg/ml
  % Inhibition Cell Adhesion: -6%
  Average Percent Bound: 73%
  Bound Cell Fluorescence: 2391 fluorescence units/well and 2791 fluorescence units/well and 3203 fluorescence units/well
  Percent Cells Bound: 68% and 74% and 77%
Asperlin 100 μg/ml
  % Inhibition Cell Adhesion: 0%
  Average Percent Bound: 69%
  Bound Cell Fluorescence: 2466 fluorescence units/well and 2854 fluorescence units/well and 3194 fluorescence units/well
  Percent Cells Bound: 61% and 70% and 75%
Asperlin 200 μg/ml
  % Inhibition Cell Adhesion: 3%
  Average Percent Bound: 67%
  Bound Cell Fluorescence: 2222 fluorescence units/well and 2736 fluorescence units/well and 2846 fluorescence units/well
  Percent Cells Bound: 61% and 68% and 71%
Summary of Table II
  Effect on adhesion of β1 integrin expressing cells to fibronectin (in words): does not block the adhesion of β1 integrin expressing cells to fibronectin

Reference: US5912266A, “Beta2 integrin cell adhesion molecule inhibitors” (American Home Products Corporation, priority 1997, dated 1999)
